Where a SMILES comes first, the peptide text is derived from it. The star is where a group is joined. CH2Cl = ClC*
Tests used:
Design in all cases: recommended concentration 1 uM
[1] = biological target: N-lysine methyltransferase SMYD2 (Homo sapiens, UniProt Q9NRG4); assay: Selectivity interaction (Enzymatic assay) EUB0002243aAD SMYD2
[2] = biological target: T1, Caspase-5 (Homo sapiens, UniProt P51878); assay: Selectivity interaction (Enzymatic assay) EUB0002198aAD CASP5
T1 sequence (P51878 whole entry): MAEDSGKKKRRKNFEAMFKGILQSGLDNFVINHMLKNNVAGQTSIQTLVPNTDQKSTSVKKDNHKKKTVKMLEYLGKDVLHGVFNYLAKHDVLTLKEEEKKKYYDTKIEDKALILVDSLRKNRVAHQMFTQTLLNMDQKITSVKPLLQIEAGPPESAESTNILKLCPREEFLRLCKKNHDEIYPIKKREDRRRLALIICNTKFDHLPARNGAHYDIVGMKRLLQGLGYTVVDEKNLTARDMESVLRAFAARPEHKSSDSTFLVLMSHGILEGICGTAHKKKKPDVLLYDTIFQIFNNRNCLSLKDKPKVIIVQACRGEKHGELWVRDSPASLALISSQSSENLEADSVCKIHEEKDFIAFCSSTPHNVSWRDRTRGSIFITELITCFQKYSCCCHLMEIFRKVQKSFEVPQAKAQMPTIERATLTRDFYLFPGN

[3] = biological target: T2, Caspase-9 (Homo sapiens, UniProt P55211); assay: Selectivity interaction (Enzymatic assay) EUB0002198aAD CASP9
T2 sequence (P55211 whole entry): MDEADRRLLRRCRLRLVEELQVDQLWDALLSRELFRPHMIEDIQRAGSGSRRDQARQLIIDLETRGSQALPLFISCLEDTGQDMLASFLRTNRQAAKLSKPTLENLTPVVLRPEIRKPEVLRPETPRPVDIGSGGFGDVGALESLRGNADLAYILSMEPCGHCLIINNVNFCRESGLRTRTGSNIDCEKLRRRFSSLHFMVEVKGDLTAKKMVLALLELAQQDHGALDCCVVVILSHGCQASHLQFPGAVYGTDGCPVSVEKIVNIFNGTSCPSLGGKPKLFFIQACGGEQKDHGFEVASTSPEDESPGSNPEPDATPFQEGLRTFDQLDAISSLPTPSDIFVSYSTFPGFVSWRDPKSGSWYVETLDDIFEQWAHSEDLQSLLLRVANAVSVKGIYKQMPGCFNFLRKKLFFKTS

[4] = biological target: Caspase-4 (Homo sapiens, UniProt P49662); assay: Selectivity interaction (Enzymatic assay) EUB0002198aAD CASP4
[5] = biological target: T3, Caspase-10 (Homo sapiens, UniProt Q92851); assay: (§1) Selectivity interaction (Enzymatic assay) EUB0002198aAD CASP10
T3 sequence (Q92851 whole entry): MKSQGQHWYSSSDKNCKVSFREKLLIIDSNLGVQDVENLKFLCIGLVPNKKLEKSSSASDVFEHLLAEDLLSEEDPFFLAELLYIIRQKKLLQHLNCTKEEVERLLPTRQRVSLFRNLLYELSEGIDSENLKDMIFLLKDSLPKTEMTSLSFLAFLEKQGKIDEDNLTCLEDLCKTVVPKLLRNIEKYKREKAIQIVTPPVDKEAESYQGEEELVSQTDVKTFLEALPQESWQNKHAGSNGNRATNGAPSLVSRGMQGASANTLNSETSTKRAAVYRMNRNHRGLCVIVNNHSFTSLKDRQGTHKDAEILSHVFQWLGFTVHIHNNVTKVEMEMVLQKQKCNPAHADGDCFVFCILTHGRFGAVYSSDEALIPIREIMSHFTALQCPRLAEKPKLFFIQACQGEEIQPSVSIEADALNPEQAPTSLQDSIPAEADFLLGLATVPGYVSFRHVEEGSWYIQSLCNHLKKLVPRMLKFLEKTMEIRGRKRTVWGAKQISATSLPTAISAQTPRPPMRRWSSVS

[6] = biological target: T3, Caspase-10; assay: as §1; remark: listed apart in the source
[7] = biological target: T3, Caspase-10; assay: as §1; remark: listed apart in the source
[8] = biological target: Caspase-14 (Homo sapiens, UniProt P31944); assay: Selectivity interaction (Enzymatic assay) EUB0002198aAD CASP14
[9] = biological target: T1, Caspase-5; assay: (§2) Selectivity interaction (Enzymatic assay) EUB0002176a CASP5
[10] = biological target: T1, Caspase-5; assay: as §2; remark: listed apart in the source
[11] = biological target: T3, Caspase-10; assay: Selectivity interaction (Eurofins (enzymatic assay)) EUB0002201a CASP10
[12] = biological target: T4, Caspase-8 (Homo sapiens, UniProt Q14790); assay: Selectivity interaction (Eurofins (enzymatic assay)) EUB0002201a CASP8
[13] = biological target: T5, Caspase-7 (Homo sapiens, UniProt P55210); assay: Selectivity interaction (Eurofins (enzymatic assay)) EUB0002201a CASP7
T5 sequence (P55210 whole entry): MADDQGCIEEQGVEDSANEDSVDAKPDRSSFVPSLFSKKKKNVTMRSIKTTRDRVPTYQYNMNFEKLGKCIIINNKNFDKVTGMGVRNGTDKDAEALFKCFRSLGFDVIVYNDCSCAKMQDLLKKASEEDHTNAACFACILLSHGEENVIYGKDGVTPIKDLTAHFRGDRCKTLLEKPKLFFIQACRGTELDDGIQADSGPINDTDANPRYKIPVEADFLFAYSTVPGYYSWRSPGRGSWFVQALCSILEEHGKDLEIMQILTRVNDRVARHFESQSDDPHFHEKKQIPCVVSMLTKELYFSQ

[14] = biological target: T1, Caspase-5; assay: Selectivity interaction (Eurofins (enzymatic assay)) EUB0002201a CASP5
[15] = biological target: Caspase-2 (Homo sapiens, UniProt P42575); assay: Selectivity interaction (Eurofins (enzymatic assay)) EUB0002201a CASP2
[16] = biological target: Caspase-6 (Homo sapiens, UniProt P55212); assay: Selectivity interaction (Eurofins (enzymatic assay)) EUB0002201a CASP6
[17] = biological target: T2, Caspase-9; assay: Selectivity interaction (Eurofins (enzymatic assay)) EUB0002201a CASP9
[18] = biological target: Caspase-3 (Homo sapiens, UniProt P42574); assay: Selectivity interaction (Eurofins (enzymatic assay)) EUB0002201a CASP3
[19] = biological target: T4, Caspase-8; assay: (§3) Selectivity interaction (Enzymatic assay) EUB0002178aAD CASP8
[20] = biological target: T2, Caspase-9; assay: (§4) Selectivity interaction (Enzymatic assay) EUB0002178aAD CASP9
[21] = biological target: T2, Caspase-9; assay: as §4; remark: listed apart in the source
[22] = biological target: T5, Caspase-7; assay: (§5) Selectivity interaction (Enzymatic assay) EUB0002178aAD CASP7
[23] = biological target: T4, Caspase-8; assay: as §3; remark: listed apart in the source
[24] = biological target: T5, Caspase-7; assay: as §5; remark: listed apart in the source

T4 sequence (Q14790 217-374 limits assumed): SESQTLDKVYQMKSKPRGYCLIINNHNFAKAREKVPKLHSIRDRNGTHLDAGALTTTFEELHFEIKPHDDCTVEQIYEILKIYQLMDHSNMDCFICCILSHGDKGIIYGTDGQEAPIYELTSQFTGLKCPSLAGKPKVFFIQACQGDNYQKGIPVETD
T4 sequence (Q14790 385-479 limits assumed): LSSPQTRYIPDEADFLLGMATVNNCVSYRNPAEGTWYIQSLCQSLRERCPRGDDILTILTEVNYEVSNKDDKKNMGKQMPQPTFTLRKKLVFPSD
Sequence of Caspase-2 (P42575 170-325 limits assumed): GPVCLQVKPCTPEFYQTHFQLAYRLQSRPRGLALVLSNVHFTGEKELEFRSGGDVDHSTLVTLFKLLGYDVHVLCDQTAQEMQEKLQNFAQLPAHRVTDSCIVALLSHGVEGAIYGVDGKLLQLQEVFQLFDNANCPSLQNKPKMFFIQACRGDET
Sequence of Caspase-2 (P42575 334-452 limits assumed): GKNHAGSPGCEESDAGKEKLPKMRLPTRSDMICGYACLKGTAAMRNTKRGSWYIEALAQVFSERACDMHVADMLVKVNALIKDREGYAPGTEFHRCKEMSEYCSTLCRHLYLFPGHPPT
Sequence of Caspase-6 (P55212 24-179 limits assumed): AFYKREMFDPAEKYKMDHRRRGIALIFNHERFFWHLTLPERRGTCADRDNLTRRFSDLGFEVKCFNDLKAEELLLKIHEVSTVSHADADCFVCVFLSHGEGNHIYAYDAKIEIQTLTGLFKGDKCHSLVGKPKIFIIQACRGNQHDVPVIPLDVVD
Sequence of Caspase-6 (P55212 194-293 limits assumed): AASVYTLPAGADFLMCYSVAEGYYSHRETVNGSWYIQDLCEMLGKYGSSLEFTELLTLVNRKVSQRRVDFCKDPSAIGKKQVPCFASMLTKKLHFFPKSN
Sequence of Caspase-4 (P49662 81-270 limits assumed): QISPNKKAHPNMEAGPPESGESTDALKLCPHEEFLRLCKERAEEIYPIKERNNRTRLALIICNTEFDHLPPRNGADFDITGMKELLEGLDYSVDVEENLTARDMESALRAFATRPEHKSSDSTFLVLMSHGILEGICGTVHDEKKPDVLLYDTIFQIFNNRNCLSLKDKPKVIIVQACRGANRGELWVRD
Sequence of Caspase-4 (P49662 290-377 limits assumed): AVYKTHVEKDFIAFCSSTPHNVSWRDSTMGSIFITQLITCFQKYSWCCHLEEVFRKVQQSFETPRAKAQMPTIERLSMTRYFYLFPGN
Sequence of Caspase-14 (P31944 6-146 limits assumed): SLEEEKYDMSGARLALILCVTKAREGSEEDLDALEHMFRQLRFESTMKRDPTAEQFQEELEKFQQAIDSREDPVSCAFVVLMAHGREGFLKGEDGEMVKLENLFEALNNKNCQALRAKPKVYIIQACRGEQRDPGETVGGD
Sequence of Caspase-14 (P31944 153-242 limits assumed): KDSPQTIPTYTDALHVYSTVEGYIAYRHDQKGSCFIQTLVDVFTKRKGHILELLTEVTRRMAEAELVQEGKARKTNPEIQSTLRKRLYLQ
Sequence of N-lysine methyltransferase SMYD2 (Q9NRG4 whole entry): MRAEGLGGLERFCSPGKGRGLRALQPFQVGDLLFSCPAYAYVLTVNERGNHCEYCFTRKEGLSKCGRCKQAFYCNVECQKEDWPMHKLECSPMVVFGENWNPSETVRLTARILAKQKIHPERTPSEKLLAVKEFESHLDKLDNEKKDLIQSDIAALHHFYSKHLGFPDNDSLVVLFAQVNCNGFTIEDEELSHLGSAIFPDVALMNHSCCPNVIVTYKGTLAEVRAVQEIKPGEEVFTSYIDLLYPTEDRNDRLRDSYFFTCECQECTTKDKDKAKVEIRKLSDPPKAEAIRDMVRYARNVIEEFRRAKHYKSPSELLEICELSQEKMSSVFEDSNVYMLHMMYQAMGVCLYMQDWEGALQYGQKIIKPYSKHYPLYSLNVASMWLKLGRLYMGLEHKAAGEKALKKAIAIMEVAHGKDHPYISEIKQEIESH
Sequence of Caspase-3 (P42574 29-175 limits assumed): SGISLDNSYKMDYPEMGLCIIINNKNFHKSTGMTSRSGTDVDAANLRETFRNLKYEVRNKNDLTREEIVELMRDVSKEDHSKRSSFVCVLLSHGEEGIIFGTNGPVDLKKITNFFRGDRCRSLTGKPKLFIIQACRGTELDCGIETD
Sequence of Caspase-3 (P42574 176-277 limits assumed): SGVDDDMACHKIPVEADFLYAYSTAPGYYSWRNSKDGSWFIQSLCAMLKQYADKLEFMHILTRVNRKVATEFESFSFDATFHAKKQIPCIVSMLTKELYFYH

A Ki [1] of 345 nM was found for `CN(C)CCCN(CC[C@H](N)C(=O)O)C[C@H]1O[C@@H](n2cnc3c(N)ncnc32)[C@H](O)[C@@H]1O` in this work.

An IC50 [2] of 21.3 nM, an IC50 [3] of 49.2 nM and an IC50 [4] of 81.7 nM were found for `CC(=O)N[C@@H](CC(C)C)C(=O)N[C@@H](CCC(=O)O)C(=O)N[C@@H](Cc1cnc[nH]1)C(=O)N[C@H](C=O)CC(=O)O` (Ac-LEHD-aldehyde) in this work. It also gave an IC50 [5] of 240 nM, an IC50 [6] of 40.4 nM and an IC50 [7] of 240 nM. It also gave an IC50 [8] of 134 nM.

An IC50 [9] of 329 nM and an IC50 [10] of 329 nM were found for `CC(=O)N[C@@H](Cc1ccccc1)C(=O)N[C@@H](CC(C)C)C(=O)N[C@H](C(=O)N[C@@H](CC(=O)O)C(=O)CCl)[C@@H](C)O` (Ac-FLTD-CH2Cl) in this work.

An IC50 [11] of 140 nM, an IC50 [12] of 3.3 nM and an IC50 [13] of 24 nM were found for `CC(=O)N[C@@H](CC(C)C)C(=O)N[C@@H](CCC(=O)O)C(=O)N[C@H](C(=O)N[C@H](C=O)CC(=O)O)C(C)C` (Ac-LEVD-aldehyde) in this work. For the same compound, the IC50 [14] was 140 nM, the IC50 [15] was 1700 nM and the IC50 [16] was 57 nM. For the same compound, the IC50 [17] was 2.1 nM and the IC50 [18] was 57 nM.

An IC50 [19] of 26 nM, an IC50 [20] of 2 nM and an IC50 [21] of 2 nM were found for `CC[C@H](C)[C@H](NC(=O)[C@H](CCC(=O)O)NC(=O)[C@@H](NC(C)=O)C(C)C)C(=O)N[C@H](C=O)CC(=O)O` (Ac-VEID-aldehyde) in this work. The IC50 [22] was 162 nM, the IC50 [23] was 26 nM and the IC50 [24] was 162 nM.
